The values below are quoted from earlier work in US20220273646A1, “PHARMACEUTICAL COMPOSITION OF TEMOZOLOMIDE” (INTAS PHARMACEUTICALS LTD., priority 2019, published 2022).

Read-outs that look alike come from different tables or passages of the source.

For data set [1] the following is noted: extemporaneously prepared oral suspensions from capsules, 4° C.
For data set [2] the following is noted: solution from powder for intravenous infusion.

As for `Cn1nnc2c(C(N)=O)ncn2c1=O` [Temozolomide, 4-methyl-5-oxo-2,3,4,6,8-pentazabicyclo[4.3.0] nona-2,7,9-triene-9-carboxamide], in data set [1], the “time found chemically stable” value is “at least 60 days”. Besides, the temozolomide remained intact result in data set [2] (1.25 mg/mL, 13 weeks at 5° C.) is given as “more than 90%”; in data set [2] (2.5 mg/mL, 9 days at room temperature) it was “more than 90%”.
